# Test results reported in patent US20130303507A1 (Novartis AG, priority 2011, published 2013).
# Several values for one entry are separate records, joined by “and”; a condition that tells them apart may be missing. Equal values may be shown once.
# Target: T1, Cdk9/cyclinT1 (Homo sapiens, UniProt P50750)
# Test: Cdk9/cyclinT1 IMAP protocol (fluorescence polarization)
# Settings: IC-50, CDK9; lower limit of assay 0.0005 micromolar
# T1 sequence (P50750 whole entry): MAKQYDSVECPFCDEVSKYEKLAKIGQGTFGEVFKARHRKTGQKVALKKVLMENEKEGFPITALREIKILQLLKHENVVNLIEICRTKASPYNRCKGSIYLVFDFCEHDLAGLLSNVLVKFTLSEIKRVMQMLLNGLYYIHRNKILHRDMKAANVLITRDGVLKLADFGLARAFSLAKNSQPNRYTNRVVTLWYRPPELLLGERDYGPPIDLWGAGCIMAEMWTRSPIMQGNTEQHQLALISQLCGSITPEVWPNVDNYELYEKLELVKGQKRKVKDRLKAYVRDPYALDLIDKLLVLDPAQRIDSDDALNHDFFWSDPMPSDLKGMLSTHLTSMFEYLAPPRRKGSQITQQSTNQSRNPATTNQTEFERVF
# T1 sequence (O60563 whole entry partner): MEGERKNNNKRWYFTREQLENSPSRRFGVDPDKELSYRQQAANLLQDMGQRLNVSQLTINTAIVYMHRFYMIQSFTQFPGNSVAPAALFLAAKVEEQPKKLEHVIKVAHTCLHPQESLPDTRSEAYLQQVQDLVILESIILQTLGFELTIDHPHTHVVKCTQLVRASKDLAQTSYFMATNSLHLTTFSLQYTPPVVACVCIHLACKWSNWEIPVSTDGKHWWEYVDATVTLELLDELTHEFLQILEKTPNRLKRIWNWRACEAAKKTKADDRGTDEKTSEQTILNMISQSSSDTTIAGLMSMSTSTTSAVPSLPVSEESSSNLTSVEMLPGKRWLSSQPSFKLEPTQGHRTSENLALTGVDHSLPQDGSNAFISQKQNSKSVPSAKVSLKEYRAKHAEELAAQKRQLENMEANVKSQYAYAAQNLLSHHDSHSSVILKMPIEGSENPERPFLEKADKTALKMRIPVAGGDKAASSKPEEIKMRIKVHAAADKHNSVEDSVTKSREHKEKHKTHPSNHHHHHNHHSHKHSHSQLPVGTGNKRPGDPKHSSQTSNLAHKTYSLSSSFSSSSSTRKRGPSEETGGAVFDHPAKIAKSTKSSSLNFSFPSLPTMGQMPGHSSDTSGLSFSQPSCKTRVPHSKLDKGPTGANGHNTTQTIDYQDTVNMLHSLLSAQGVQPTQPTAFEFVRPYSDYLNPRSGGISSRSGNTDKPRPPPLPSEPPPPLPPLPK
row,SMILES,IC50
1,"N#CC1(CNc2cccc(-c3cc(N[C@H]4CCCc5ccccc54)ncc3Cl)n2)CCOCC1 [Compound 501, (S)-4-(((5′-chloro-2′-((1,2,3,4-tetrahydronaphthalen-1-yl)amino)-[2,4′-bipyridin]-6-yl)amino)methyl)tetrahydro-2H-pyran-4-carbonitrile]",480000 pM
2,"C[C@@H]1COCCN1[C@H]1CC[C@H](Nc2cc(-c3cccc(NCC4(C#N)CCOCC4)n3)c(Cl)cn2)CC1 [Compound 503, 4-(((5′-chloro-2′-((trans-4-((R)-3-methylmorpholino)cyclohexyl)amino)-[2,4′-bipyridin]-6-yl)amino)methyl)tetrahydro-2H-pyran-4-carbonitrile]",2600 pM
3,"N#CC1(CNc2cccc(-c3cc(N[C@H]4CC[C@H](CNc5nc6ccccc6o5)CC4)ncc3Cl)n2)CCOCC1 [Compound 504, 4-(((2′-((trans-4-((benzo[d]oxazol-2-ylamino)methyl)cyclohexyl)amino)-5′-chloro-[2,4′-bipyridin]-6-yl)amino)methyl)tetrahydro-2H-pyran-4-carbonitrile]",1000 pM
4,"N#CC1(CNc2cccc(-c3cc(N[C@H]4CC[C@H](CNc5cc(Cl)ncn5)CC4)ncc3Cl)n2)CCOCC1 [Compound 505, 4-(((5′-chloro-2′-((trans-4-(((6-chloropyrimidin-4-yl)amino)methyl)cyclohexyl)amino)-[2,4′-bipyridin]-6-yl)amino)methyl)tetrahydro-2H-pyran-4-carbonitrile]",≤ 500 pM
5,"COC[C@@H](C)N[C@H]1CC[C@H](Nc2cc(-c3cncc(NCC4(C#N)CCOCC4)n3)c(Cl)cn2)CC1 [Compound 507, 4-(((6-(5-chloro-2-((trans-4-(((R)-1-methoxypropan-2-yl)amino)cyclohexyl)amino)pyridin-4-yl)pyrazin-2-yl)amino)methyl)tetrahydro-2H-pyran-4-carbonitrile]",< 500 pM
6,"COC[C@@H](C)N[C@H]1CC[C@H](Nc2cc(-c3cncc(OCC4(C#N)CCOCC4)n3)c(Cl)cn2)CC1 [Compound 509, 4-(((6-(5-chloro-2-((trans-4-(((R)-1-methoxypropan-2-yl)amino)cyclohexyl)amino)pyridin-4-yl)pyrazin-2-yl)oxy)methyl)tetrahydro-2H-pyran-4-carbonitrile]",1100 pM
7,"N#CC1(COc2cncc(-c3cc(N[C@H]4CC[C@H](N)CC4)ncc3Cl)n2)CCOCC1 [Compound 511, 4-(((6-(2-((trans-4-aminocyclohexyl)amino)-5-chloropyridin-4-yl)pyrazin-2-yl)oxy)methyl)tetrahydro-2H-pyran-4-carbonitrile]",600 pM
8,N#CC1(CNc2cccc(-c3cc(NC4CNC4)ncc3Cl)n2)CCOCC1 [Example 401],81000 pM
9,N#CC1(CNc2cccc(-c3cc(NC4CCNCC4)ncc3Cl)n2)CCOCC1 [Example 402],4800 pM
10,N#CC1(CNc2cccc(-c3cc(N[C@@H]4CC[C@@H](N(CC5CCCO5)CC5CCCO5)C4)ncc3Cl)n2)CCOCC1 (stereo partly drawn) [Example 407],5500 pM

# Second part, the compound after the results:
row,IC50,SMILES
1,600 pM,"CN(C)C(=O)NC[C@H]1CC[C@H](Nc2cc(-c3cccc(NCC4(C#N)CCOCC4)n3)c(Cl)cn2)CC1 [Compound 499, 3-((trans-4-((5′-chloro-6-(((4-cyanotetrahydro-2H-pyran-4-yl)methyl)amino)-[2,4′-bipyridin]-2′-yl)amino)cyclohexyl)methyl)-1,1-dimethylurea]"
2,20000 pM,"N#CC1(CNc2cccc(-c3cc(N[C@@H]4CCCc5ccccc54)ncc3Cl)n2)CCOCC1 [Compound 500, (R)-4-(((5′-chloro-2′-((1,2,3,4-tetrahydronaphthalen-1-yl)amino)-[2,4′-bipyridin]-6-yl)amino)methyl)tetrahydro-2H-pyran-4-carbonitrile]"
3,2900 pM,"C[C@H]1COCCN1[C@H]1CC[C@H](Nc2cc(-c3cccc(NCC4(C#N)CCOCC4)n3)c(Cl)cn2)CC1 [Compound 502, 4-((5′-chloro-2′-(trans-4-((S)-3-methylmorpholino)cyclohexyl-amino)-2,4′-bipyridin-6-ylamino)methyl)tetrahydro-2H-pyran-4-carbonitrile]"
4,≤ 500 pM,"COC[C@@H](C)N[C@H]1CC[C@H](Nc2cc(-c3nc(NCC4(C#N)CCOCC4)cnc3Cl)c(Cl)cn2)CC1 [Compound 506, 4-(((5-chloro-6-(5-chloro-2-((trans-4-(((R)-1-methoxypropan-2-yl)amino)cyclohexyl)amino)pyridin-4-yl)pyrazin-2-yl)amino)methyl)tetrahydro-2H-pyran-4-carbonitrile]"
5,< 500 pM,"COCCN[C@H]1CC[C@H](Nc2cc(-c3nc(NCC4(C#N)CCOCC4)cnc3Cl)c(Cl)cn2)CC1 [Compound 508, 4-(((5-chloro-6-(5-chloro-2-((trans-4-((2-methoxyethyl)amino)cyclohexyl)amino)pyridin-4-yl)pyrazin-2-yl)amino)methyl)tetrahydro-2H-pyran-4-carbonitrile]"
6,1300 pM,"COCCN[C@H]1CC[C@H](Nc2cc(-c3cncc(OCC4(C#N)CCOCC4)n3)c(Cl)cn2)CC1 [Compound 510, 4-(((6-(5-chloro-2-((trans-4-((2-methoxyethyl)amino)cyclohexyl)amino)pyridin-4-yl)pyrazin-2-yl)oxy)methyl)tetrahydro-2H-pyran-4-carbonitrile]"

# Target: T1, Cdk9/cyclinT1
# Test: Cdk9/cyclinT1 Alpha Screen protocol
# Type: biochemical
# Parameters: Full length wild type Cdk9/cyclin T1 is purchased from Invitrogen; purchased Invitrogen PV4131
# Settings: TFA salt; individual determinations; read-out: CDK9_cyclinT1_AS2_IC50
# Description: Cdk9/cyclinT1 Alpha Screen Protocol
# Full length wild type Cdk9/cyclin T1 is purchased from Invitrogen, cat#PV4131. […] The cdk7tide peptide substrate, biotin-[…] -OH, is a custom synthesis purchased from the Tufts University Core Facility. The final concentration of cdk7tide peptide substrate is 200 nM. […] Phospho-Rpb1 CTD (ser2/5) substrate antibody is purchased from Cell Signaling Technology. The final concentration of antibody is 0.67 ug/ml. The Alpha Screen Protein A detection kit containing donor and acceptor beads is purchased from PerkinElmer Life Sciences. The final concentration of both donor and acceptor beads is 15 ug/ml. Alpha Screen is used for detection. […] The biotinylated-cdk7tide peptide substrate is bound to the streptavidin coated donor bead. The antibody is bound to the protein A coated acceptor bead. The antibody will bind to the phosphorylated form of the biotinylated-cdk7tide peptide substrate, bringing the donor and acceptor beads into close proximity. Laser irradiation of the donor bead at 680 nm generates a flow of short-lived singlet oxygen molecules. When the donor and acceptor beads are in close proximity, the reactive oxygen generated by the irradiation of the donor beads initiates a luminescence/fluorescence cascade in the acceptor beads. This process leads to a highly amplified signal with output in the 530-620 nm range. Assays are carried out in 50 mM Hepes, pH=7.5, 10 mM MgCl2, 0.1% Bovine Serum Albumin, 0.01% Tween-20, 1 mM Dithiothreitol, 2.5% Dimethyl Sulfoxide. Stop and detection steps are combined using 50 mM Hepes, pH=7.5, 18 mM EDTA, 0.1% Bovine Serum Albumin, 0.01% Tween-20.
row,SMILES,IC50
1,CO[C@H]1CCN([C@H]2CC[C@@H](Nc3cc(-c4cccc(NCC5(C#N)CCOCC5)n4)c(Cl)cn3)CC2)C1 [Compound 513],26100 pM
2,CO[C@H]1CCN([C@H]2CC[C@H](Nc3cc(-c4cccc(NCC5(C#N)CCOCC5)n4)c(Cl)cn3)CC2)C1 [Compound 514],826 pM
3,CC(C)(C)OCCN[C@H]1CC[C@H](Nc2cc(-c3cccc(NCC4(C#N)CCOCC4)n3)c(Cl)cn2)CC1 [Compound 515],2190 pM
4,COC[C@@H](C)N[C@H]1CC[C@H](Nc2cc(-c3cccc(NCC4(C#N)CCOCC4)n3)c(F)cn2)CC1 [Compound 519],252 pM and 218 pM and 232 pM and 380 pM
5,COC[C@H](C)N[C@H]1CC[C@H](Nc2cc(-c3cccc(NCC4(C#N)CCOCC4)n3)c(F)cn2)CC1 [Compound 520],458 pM and 413 pM
6,N#CC1(CNc2cccc(-c3cc(N[C@H]4CC[C@H](N[C@H]5CCCC[C@@H]5O)CC4)ncc3Cl)n2)CCOCC1 [Compound 523],330 pM
7,COC[C@@H](C)NC[C@H]1CC[C@H](Nc2cc(-c3cccc(NCC4(C#N)CCOCC4)n3)c(Cl)cn2)CC1 [Compound 532],703 pM
8,COC[C@H](C)NC[C@H]1CC[C@H](Nc2cc(-c3cccc(NCC4(C#N)CCOCC4)n3)c(Cl)cn2)CC1 [Compound 533],867 pM

# Other lines, results leading:
row,IC50,SMILES
1,8570 pM,CC(C)(C)OCCN(CCOC(C)(C)C)[C@H]1CC[C@H](Nc2cc(-c3cccc(NCC4(C#N)CCOCC4)n3)c(Cl)cn2)CC1 [Compound 518]
2,542 pM,N#CC1(CNc2cccc(-c3cc(N[C@H]4CC[C@H](N[C@@H]5CCCC[C@H]5O)CC4)ncc3Cl)n2)CCOCC1 [Compound 525]

# Same assay, conditions: neutral species; individual determinations; read-out: CDK9_cyclinT1_AS2_IC50
row,SMILES,IC50
1,CO[C@H]1CCN([C@H]2CC[C@@H](Nc3cc(-c4cccc(NCC5(C#N)CCOCC5)n4)c(Cl)cn3)CC2)C1 [Compound 513],5390 pM
2,CO[C@H]1CCN([C@H]2CC[C@H](Nc3cc(-c4cccc(NCC5(C#N)CCOCC5)n4)c(Cl)cn3)CC2)C1 [Compound 514],553 pM
3,CC(C)(C)OCCN[C@H]1CC[C@H](Nc2cc(-c3cccc(NCC4(C#N)CCOCC4)n3)c(Cl)cn2)CC1 [Compound 515],217 pM
4,CO[C@H]1CCN([C@H]2CC[C@@H](Nc3cc(-c4cccc(NCC5(C#N)CCOCC5)n4)c(F)cn3)CC2)C1 [Compound 517],8610 pM
5,COC[C@@H](C)N[C@H]1CC[C@H](Nc2cc(-c3cccc(NCC4(C#N)CCOCC4)n3)c(F)cn2)CC1 [Compound 519],235 pM
6,CC(C)(O)CN[C@H]1CC[C@H](Nc2cc(-c3cccc(NCC4(C#N)CCOCC4)n3)c(Cl)cn2)CC1 [Compound 521],475 pM
7,COC(C)(C)CN[C@H]1CC[C@H](Nc2cc(-c3cccc(NCC4(C#N)CCOCC4)n3)c(Cl)cn2)CC1 [Compound 529],281 pM
8,N#CC1(CNc2cccc(-c3cc(N[C@H]4CC[C@@H](N5CCn6c(nnc6C(F)(F)F)C5)CC4)ncc3Cl)n2)CCOCC1 [Compound 530],36900 pM
9,C[C@H](N[C@H]1CC[C@H](Nc2cc(-c3cccc(NCC4(C#N)CCOCC4)n3)c(Cl)cn2)CC1)[C@@H](C)O [Compound 531],471 pM

# Other lines, results leading:
row,IC50,SMILES
1,254000 pM,COC[C@@H](C)N[C@H]1CC[C@H](Nc2cc(-c3cnc(Cl)c(NCC4(C#N)CCOCC4)n3)c(Cl)cn2)CC1 [Compound 512]
2,835 pM,CO[C@H]1CCN([C@H]2CC[C@H](Nc3cc(-c4cccc(NCC5(C#N)CCOCC5)n4)c(F)cn3)CC2)C1 [Compound 516]
3,421 pM,CC(C)(O)CN[C@H]1CC[C@H](Nc2cc(-c3cccc(NCC4(C#N)CCOCC4)n3)c(F)cn2)CC1 [Compound 522]
4,850 pM,CC(C)(O)CN[C@H]1CC[C@H](Nc2cc(-c3cncc(OCC4(C#N)CCOCC4)n3)c(Cl)cn2)CC1 [Compound 524]
5,1190 pM,COCC(C)NC[C@H]1CC[C@H](Nc2cc(-c3cccc(NCC4(C#N)CCOCC4)n3)c(Cl)cn2)CC1 (stereo partly drawn) [Compound 526]
6,594 pM,CC(C)(C)OCCN[C@H]1CC[C@H](Nc2cc(-c3cccc(NCC4(C#N)CCOCC4)n3)c(F)cn2)CC1 [Compound 527]
7,7730 pM,N#CC1(CNc2cccc(-c3cc(N[C@H]4CC[C@H](N5CCn6c(nnc6C(F)(F)F)C5)CC4)ncc3Cl)n2)CCOCC1 [Compound 528]
